Experimental data reported in BindingDB's records for doi:10.1074/jbc.M114.559062 (Case Western Reserve University School of Medicine, 2014).

How the values were obtained:
[1] = target: T1, Fatty acid-binding protein 5 (Mus musculus, UniProt Q05816); test: Fluorescence Competition Assay
T1 sequence (Q05816 whole entry): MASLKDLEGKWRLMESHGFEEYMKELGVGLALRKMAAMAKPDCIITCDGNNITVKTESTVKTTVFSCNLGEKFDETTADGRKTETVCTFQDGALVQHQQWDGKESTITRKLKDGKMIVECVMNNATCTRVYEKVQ
Method: (§1) The method entails two steps [Lin et al., Biochemistry, 38:185-190]. In the first step, the Kd for association of FABP5 with the fluorescent lipid probe anilinonaphtalene-8-sulfonic acid (ANS) was measured by fluorescence titrations. Kd values for nonfluorescent ligands were then measured by monitoring their ability to compete with the probe for binding. FABP5 was precomplexed with ANS and titrated with ligands. Ligand binding was followed by monitoring the decrease in fluorescence upon displacement of the probe from the protein.

[2] = target: T2, Fatty acid-binding protein 5-ANS (Mus musculus, UniProt Q05816); test: Fluorescence Competition Assay
T2 sequence (Q05816 whole entry): T1 sequence (Q05816 whole entry)
Method: as §1

| Kd [1] [nM] | SMILES | Kd [2] [nM] |
| --- | --- | --- |
| 70 | O=S(=O)(O)c1cccc2cccc(Nc3ccccc3)c12 [ANS] | – |
| – | CCCCC/C=C\C/C=C\C/C=C\C/C=C\CCCC(=O)NCCO [Arachidonoyl ethanolamide] | 100 |
| – | CCCCC/C=C\C/C=C\C/C=C\C/C=C\CCCC(=O)O [[1-14C]Arachidonic acid] | 42.1 |
